In PMC10207986, “Computational high-throughput screening and in vitro approaches identify CB-006-3; A novel PI3K-BRAF^V600E dual targeted inhibitor against melanoma” (Oncology Research, 2022) one finds IC50 data, which are given here for one compound.

Holding throughout (type): biochemical
One experiment has as its target T1, BRAF^V600E (B-Raf^V600E) (Homo sapiens, UniProt P15056, V600E).
T1 construct: enzyme of BPS Bioscience B-Raf V600E assay kit
Nature of the experiment: luminescence kinase assay (Kinase-Glo Max). As to conditions: 500 µM ATP, Raf substrate, 45 min, 30°C. (Kinase-Glo reads ATP consumption through a luciferase reaction.)

In the next experiment the target is T2, PI3KCD (PI3K delta) (Homo sapiens, UniProt O00329).
T2 construct: gene PIK3CD; enzyme used with Merck Millipore PI3K HTRF kit; with Phosphatidylinositol 3-kinase regulatory subunit alpha
T2 sequence (O00329 whole entry): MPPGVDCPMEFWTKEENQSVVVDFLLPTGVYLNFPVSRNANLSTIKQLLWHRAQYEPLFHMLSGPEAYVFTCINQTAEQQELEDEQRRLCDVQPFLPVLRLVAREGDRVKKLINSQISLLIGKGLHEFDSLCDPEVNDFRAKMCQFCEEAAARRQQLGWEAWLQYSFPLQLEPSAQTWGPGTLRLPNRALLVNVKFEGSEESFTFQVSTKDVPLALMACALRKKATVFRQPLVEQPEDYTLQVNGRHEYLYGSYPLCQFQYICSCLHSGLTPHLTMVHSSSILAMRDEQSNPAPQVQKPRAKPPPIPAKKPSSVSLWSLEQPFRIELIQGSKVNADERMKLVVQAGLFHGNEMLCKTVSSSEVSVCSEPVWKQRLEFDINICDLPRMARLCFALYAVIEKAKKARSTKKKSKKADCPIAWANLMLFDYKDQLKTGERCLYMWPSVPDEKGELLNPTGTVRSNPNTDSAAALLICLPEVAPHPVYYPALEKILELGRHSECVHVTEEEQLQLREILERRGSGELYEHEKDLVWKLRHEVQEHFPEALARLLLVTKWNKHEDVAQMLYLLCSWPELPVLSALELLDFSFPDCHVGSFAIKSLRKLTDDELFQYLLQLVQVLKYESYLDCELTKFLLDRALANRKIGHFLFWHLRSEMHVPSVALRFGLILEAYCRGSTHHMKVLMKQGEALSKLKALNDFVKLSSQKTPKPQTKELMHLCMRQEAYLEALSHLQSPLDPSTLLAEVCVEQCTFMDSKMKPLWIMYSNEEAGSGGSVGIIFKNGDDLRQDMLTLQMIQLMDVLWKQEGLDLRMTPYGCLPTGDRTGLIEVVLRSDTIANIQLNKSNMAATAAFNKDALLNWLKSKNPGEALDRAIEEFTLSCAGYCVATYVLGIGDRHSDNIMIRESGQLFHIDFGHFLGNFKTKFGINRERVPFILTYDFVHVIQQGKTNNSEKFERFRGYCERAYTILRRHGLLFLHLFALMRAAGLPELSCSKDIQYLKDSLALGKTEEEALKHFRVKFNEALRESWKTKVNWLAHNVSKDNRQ
T2 sequence (P27986 2-724 partner): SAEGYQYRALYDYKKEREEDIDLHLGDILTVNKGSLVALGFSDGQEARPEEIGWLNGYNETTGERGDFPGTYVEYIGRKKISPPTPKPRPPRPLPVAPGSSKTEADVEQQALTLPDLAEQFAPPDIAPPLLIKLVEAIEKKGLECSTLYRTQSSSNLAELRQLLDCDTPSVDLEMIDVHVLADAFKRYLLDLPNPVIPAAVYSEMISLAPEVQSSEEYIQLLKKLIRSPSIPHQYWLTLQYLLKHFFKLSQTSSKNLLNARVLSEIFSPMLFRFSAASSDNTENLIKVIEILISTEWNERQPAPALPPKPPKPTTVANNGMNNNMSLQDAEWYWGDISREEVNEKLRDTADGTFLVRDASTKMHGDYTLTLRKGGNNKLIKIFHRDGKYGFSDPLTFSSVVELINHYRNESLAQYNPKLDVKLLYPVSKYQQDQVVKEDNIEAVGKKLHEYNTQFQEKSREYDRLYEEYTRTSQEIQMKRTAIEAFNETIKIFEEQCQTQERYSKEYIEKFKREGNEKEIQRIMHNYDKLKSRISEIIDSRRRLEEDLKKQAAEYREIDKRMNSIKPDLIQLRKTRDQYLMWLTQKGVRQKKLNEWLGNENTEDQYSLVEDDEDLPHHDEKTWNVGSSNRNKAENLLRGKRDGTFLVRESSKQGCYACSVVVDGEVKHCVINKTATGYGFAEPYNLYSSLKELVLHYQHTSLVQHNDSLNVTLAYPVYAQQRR
The experiment is described as follows: HTRF PI3K kinase assay. The settings on record: PIP2 substrate, ATP; 10 min pre-incubation, 30 min, room temperature. A general note: Time-resolved FRET reads energy transfer from a long-lived donor to a nearby acceptor.

The target in the next experiment is T3, PI3KCG (PI3K gamma) (Homo sapiens, UniProt P48736).
T3 construct: gene PIK3CG; enzyme used with Merck Millipore PI3K HTRF kit
T3 sequence (P48736 whole entry): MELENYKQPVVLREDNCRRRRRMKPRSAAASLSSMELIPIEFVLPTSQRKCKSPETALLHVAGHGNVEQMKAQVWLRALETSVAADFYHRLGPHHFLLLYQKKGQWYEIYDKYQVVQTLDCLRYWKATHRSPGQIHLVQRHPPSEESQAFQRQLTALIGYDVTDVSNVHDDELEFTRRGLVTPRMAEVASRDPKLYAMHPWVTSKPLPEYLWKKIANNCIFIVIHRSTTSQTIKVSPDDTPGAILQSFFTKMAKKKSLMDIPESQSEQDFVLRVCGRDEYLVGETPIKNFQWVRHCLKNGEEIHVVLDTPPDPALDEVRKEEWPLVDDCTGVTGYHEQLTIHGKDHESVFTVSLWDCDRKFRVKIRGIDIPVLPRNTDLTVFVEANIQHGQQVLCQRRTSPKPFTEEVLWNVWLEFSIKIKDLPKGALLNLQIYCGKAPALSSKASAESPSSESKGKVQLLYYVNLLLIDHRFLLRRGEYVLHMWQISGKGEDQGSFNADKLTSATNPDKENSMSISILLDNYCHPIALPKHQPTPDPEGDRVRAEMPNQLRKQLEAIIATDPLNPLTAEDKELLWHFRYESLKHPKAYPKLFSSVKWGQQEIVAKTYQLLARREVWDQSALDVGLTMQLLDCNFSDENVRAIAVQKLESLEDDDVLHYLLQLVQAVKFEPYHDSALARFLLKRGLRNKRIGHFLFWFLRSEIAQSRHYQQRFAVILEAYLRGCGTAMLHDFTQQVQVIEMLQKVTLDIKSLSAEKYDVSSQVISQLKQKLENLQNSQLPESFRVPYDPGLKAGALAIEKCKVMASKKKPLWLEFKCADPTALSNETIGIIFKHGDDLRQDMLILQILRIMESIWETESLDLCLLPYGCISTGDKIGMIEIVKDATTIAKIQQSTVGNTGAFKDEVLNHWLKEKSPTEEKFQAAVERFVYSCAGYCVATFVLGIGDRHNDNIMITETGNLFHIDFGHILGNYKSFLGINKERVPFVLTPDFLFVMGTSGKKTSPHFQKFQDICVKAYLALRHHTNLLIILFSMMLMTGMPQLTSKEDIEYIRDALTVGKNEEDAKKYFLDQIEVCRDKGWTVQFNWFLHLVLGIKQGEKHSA
The experiment is described as follows: HTRF PI3K kinase assay. The settings on record: PIP2 substrate, ATP; 10 min pre-incubation, 30 min, room temperature.

T1 sequence (P15056 2-766 V600E): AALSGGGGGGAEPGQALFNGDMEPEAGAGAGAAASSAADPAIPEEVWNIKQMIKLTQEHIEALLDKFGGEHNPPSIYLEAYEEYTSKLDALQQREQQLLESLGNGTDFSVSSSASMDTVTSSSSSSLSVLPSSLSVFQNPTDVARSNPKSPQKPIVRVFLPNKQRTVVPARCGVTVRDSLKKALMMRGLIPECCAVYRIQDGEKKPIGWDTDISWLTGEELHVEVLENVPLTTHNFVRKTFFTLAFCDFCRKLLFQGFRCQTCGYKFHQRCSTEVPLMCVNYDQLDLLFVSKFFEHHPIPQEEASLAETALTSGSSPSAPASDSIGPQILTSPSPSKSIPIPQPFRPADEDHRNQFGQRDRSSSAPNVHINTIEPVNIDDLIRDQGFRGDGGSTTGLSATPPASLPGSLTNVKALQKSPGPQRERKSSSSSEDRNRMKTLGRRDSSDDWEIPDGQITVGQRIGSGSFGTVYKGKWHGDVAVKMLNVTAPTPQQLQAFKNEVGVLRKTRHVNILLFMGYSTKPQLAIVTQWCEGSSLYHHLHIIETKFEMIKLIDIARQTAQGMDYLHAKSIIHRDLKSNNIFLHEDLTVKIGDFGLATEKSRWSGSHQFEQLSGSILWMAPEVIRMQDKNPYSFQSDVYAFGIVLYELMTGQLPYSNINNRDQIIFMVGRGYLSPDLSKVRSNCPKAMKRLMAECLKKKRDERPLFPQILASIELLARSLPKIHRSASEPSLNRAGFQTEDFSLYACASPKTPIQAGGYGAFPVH

In the case of `Cc1cc(C)c(CC(=O)N2C[C@@H]3CC(=O)NCCN(C)C(=O)c4cccn(c4=O)Cc4cn(nn4)[C@@H]3C2)c(C)c1` (relative stereo) [CB-006-3, rel-(17aS,20aS)-19-(mesitylacetyl)-12-methyl-12,13,14,15,17,17a,18,19,20,20a-decahydro-6,10-methano-1,4-methenopyrrolo[3,4-r] [1,2,3,6,12,15]hexaazacyclononadecine-11,16,21-trione], the IC50 – broadly, the midpoint of a concentration-inhibition curve – against BRAF^V600E (B-Raf^V600E) amounted to 70.8 nM; against PI3KCD (PI3K delta), 160 nM; against PI3KCG (PI3K gamma), 75.8 nM.
